From patent US6150325A, “Bicyclic tachykinins antagonists, preparation thereof and their use in pharmaceutical compositions” (A. Menarini Industrie Farmaceutiche Riunite S.r.l., priority 1995, dated 2000)

Molecular target: T1, NKA receptor (Mus musculus, UniProt P30549)
T1 construct: contractions of the urinary bladder in the anaesthetized mouse; from tissue; host or cells: urinary bladder of the anaesthetized animal, in vivo
T1 sequence (P30549 1-384): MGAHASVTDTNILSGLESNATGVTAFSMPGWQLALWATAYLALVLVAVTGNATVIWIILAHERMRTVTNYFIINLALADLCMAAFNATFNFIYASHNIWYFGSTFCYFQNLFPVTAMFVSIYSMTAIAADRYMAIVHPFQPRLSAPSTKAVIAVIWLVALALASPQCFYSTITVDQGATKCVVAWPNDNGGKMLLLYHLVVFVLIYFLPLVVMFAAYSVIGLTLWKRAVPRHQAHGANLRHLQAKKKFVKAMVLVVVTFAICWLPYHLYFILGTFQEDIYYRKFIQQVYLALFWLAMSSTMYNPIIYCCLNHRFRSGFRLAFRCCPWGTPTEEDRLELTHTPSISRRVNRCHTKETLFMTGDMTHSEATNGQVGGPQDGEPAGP
Assay: in vivo inhibition of agonist [betaAla8]NKA(4-10)-induced contractions of the urinary bladder after intravenous administration
Conditions: anaesthetized mouse, 10 nmol/Kg i.v.
Protocol: The capability of the compounds of the present invention to interact as agonists or antagonists with the neurokynin A (NKA) receptor has been valued in a in vitro test using the pulmonary artery of a rabbit (RPA) (Rovero et al., Neuropeptides, 1989, 13, 263-270) and their activity was determined as pKB ([…] of the dissociation constant), as described in Jenkinson et al., TiPS, 12, 53-56, 1991. For example, compound 2 has shown a pKB =8.67. The capability of the products of the present invention to interact as agonists or antagonists with NKA receptor has been valued in vivo as capability, after intravenous administration,to inhibit the agonist [betaAla^8 ] NKA (4-10)-induced contractions of the urinary bladder in the anaesthetized mouse, as described in Maggi et al., J. Pharmacol. Exp. Ther., 1991, 257, 1172. Compound 1, e.g., causes, at dose of 10 nmol/Kg i.v., an inhibitory effect of 50-70%, as it has been valued at different times. The effect lasts over a period of more than 3 hours.

- duration of the inhibitory effect: more than 3 hours
- inhibitory effect on [betaAla8]NKA(4-10)-induced contractions of the urinary bladder (valued at different times): 50-70%
Substance: cyclo([Asn(β-D-Glc)-Asp-Trp-Phe-Dap-Leu]cyclo(2β-5β)) [Compound 1]
